Where “and” joins values, the source holds several entries; their conditions need not be identical. Equal entries are not always repeated. Toxic doses and inconclusive results are not listed. How the source made its calls: active means survival T/C of 150% or more; inactive means T/C below 125% in these data.
Test system: BDF1 mice, P388 leukemia ip, median survival T/C
Experiment: NCI In Vivo Anticancer Drug Screen. Data for tumor model P388 Leukemia (intraperitoneal) in B6D2F1 (BDF1) mice
Conditions: endpoint: median survival time, higher = longer survival
Outline: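 Each value expresses how treatment altered survival: treated-mouse outcome over vehicle-mouse outcome, both groups bearing the transplanted tumour.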

[1] = dose: 100.0 mg/kg/injection, schedule: Q01DX009 (ip), vehicle: saline with Tween-80
[2] = dose: 100.0 mg/kg/injection, schedule: Q04DX003 (ip), vehicle: saline with Tween-80
[3] = dose: 200.0 mg/kg/injection, schedule: Q01DX009 (ip), vehicle: saline with Tween-80
[4] = dose: 200.0 mg/kg/injection, schedule: Q04DX003 (ip), vehicle: saline with Tween-80
[5] = dose: 400.0 mg/kg/injection, schedule: Q01DX009 (ip), vehicle: saline with Tween-80
[6] = dose: 400.0 mg/kg/injection, schedule: Q04DX003 (ip), vehicle: saline with Tween-80
[7] = dose: 50.0 mg/kg/injection, schedule: Q01DX009 (ip), vehicle: saline with Tween-80

Measured: T/C

CC1(C)N=C(N)N=C(N)N1c1cccc(CCCCc2ccc(S(=O)(=O)F)cc2)c1
active: dose: 8.25 mg/kg/injection, schedule: Q01DX009 (ip), vehicle: saline 150 % of control | dose: 18.75 mg/kg/injection, schedule: Q01DX009 (ip), vehicle: saline 150 % of control
inactive: dose: 2.75 mg/kg/injection, schedule: Q01DX009 (ip), vehicle: saline 120 % of control

COC(=O)C(CSCSC)NC(=O)Nc1ccc(F)cc1 (stereo not given)
inactive: [1] 100 % of control | [2] 100 % of control | [3] 100 % of control | [4] 95 % of control | [5] 109 % of control | [6] 90 % of control

COC1/C=C/OC2(C)Oc3c(C)c(O)c4c(O)c(c(/C=N/NC5CCCCCCCCCCCCCC5)c(O)c4c3C2=O)NC(=O)/C(C)=C\C=C\C(C)C(O)C(C)C(O)C(C)C(OC(C)=O)C1C (stereo not given)
inactive: [1] 100 % of control | [2] 100 % of control | [3] 95 % of control | [4] 90 % of control | [5] 95 % of control | [6] 90 % of control

CCCCCCC#CC(=O)O
inactive: [7] 100 % of control | dose: 50.0 mg/kg/injection, schedule: Q01DX009 (sc), vehicle: olive oil, sesame oil, peanut oil 96 % of control | [1] 98 % of control | dose: 100.0 mg/kg/injection, schedule: Q01DX009 (sc), vehicle: olive oil, sesame oil, peanut oil 96 % of control | dose: 100.0 mg/kg/injection, schedule: Q04DX003 (sc), vehicle: olive oil, sesame oil, peanut oil 100 % of control | [3] 116 % of control | dose: 200.0 mg/kg/injection, schedule: Q01DX009 (sc), vehicle: olive oil, sesame oil, peanut oil 92 % of control | dose: 200.0 mg/kg/injection, schedule: Q04DX003 (sc), vehicle: olive oil, sesame oil, peanut oil 96 % of control

CC1(C)CC(=O)C=C(NCc2ccccc2)C1
inactive: dose: 37.5 mg/kg/injection, schedule: Q01DX009 (ip), vehicle: Klucel (hydroxypropylcellulose) (HPC) 100 % of control | dose: 75.0 mg/kg/injection, schedule: Q01DX009 (ip), vehicle: Klucel (hydroxypropylcellulose) (HPC) 100 % of control | dose: 150.0 mg/kg/injection, schedule: Q01DX009 (ip), vehicle: Klucel (hydroxypropylcellulose) (HPC) 100 % of control

Cc1cc(S(=O)(=O)c2ccc(Cl)c(C)c2)ccc1Cl
inactive: [7] 105 % of control | [1] 100 % of control | [3] 91 % of control

BrC1c2cccc3cccc(c23)C1Br (stereo not given)
inactive: [3] 88 % of control
active: [1] 150 % of control

N[C@@H](Cc1ccc(O)c(O)c1)C(=O)O
inactive: dose: 50.0 mg/kg/injection, schedule: Q01DX010 (ip), vehicle: saline 92 % of control | dose: 100.0 mg/kg/injection, schedule: Q01DX010 (ip), vehicle: saline 96 % of control | dose: 200.0 mg/kg/injection, schedule: Q01DX010 (ip), vehicle: saline 100 % of control | dose: 400.0 mg/kg/injection, schedule: Q01DX010 (ip), vehicle: saline 107 % of control

CCOC1OCN(c2ccc(OC)cc2)CC1(C)C (stereo not given)
inactive: [7] 98 % of control and 100 % of control | [1] 113 % of control and 114 % of control | [3] 116 % of control and 124 % of control

c1ccc(COC2CN3CCC2CC3)cc1 (stereo not given)
inactive: dose: 25.0 mg/kg/injection, schedule: Q04DX003 (ip), vehicle: saline with Tween-80 122 % of control | dose: 50.0 mg/kg/injection, schedule: Q04DX003 (ip), vehicle: saline with Tween-80 100 % of control

CC(=O)N1C=Cn2c(cnc2C)C1O (stereo not given)
inactive: dose: 100.0 mg/kg/injection, schedule: Q04DX003 (ip), vehicle: water 96 % of control | dose: 200.0 mg/kg/injection, schedule: Q04DX003 (ip), vehicle: water 91 % of control | dose: 400.0 mg/kg/injection, schedule: Q04DX003 (ip), vehicle: water 99 % of control

O=C(O)C1CCCC2C(O)CCC(=O)C12 (stereo not given)
inactive: [1] 100 % of control | [3] 109 % of control

From PubChem BioAssay AID328 (DTP/NCI, 2004)
